Test results from ChEMBL document CHEMBL1143529, “A general carbometalation, three component coupling strategy for the synthesis of alpha,beta-unsaturated gamma-sultines including thio-rofecoxib, a selective COX-2 inhibitor” (Bioorg Med Chem Lett, 2005).

Experiments:
[1] = target: T1, Prostaglandin G/H synthase 2 (Homo sapiens) (UniProt P35354); assay: In vitro percent inhibition of prostaglandin G/H synthase 2 at 100 uM in microsomal enzyme assay
T1 sequence (whole entry): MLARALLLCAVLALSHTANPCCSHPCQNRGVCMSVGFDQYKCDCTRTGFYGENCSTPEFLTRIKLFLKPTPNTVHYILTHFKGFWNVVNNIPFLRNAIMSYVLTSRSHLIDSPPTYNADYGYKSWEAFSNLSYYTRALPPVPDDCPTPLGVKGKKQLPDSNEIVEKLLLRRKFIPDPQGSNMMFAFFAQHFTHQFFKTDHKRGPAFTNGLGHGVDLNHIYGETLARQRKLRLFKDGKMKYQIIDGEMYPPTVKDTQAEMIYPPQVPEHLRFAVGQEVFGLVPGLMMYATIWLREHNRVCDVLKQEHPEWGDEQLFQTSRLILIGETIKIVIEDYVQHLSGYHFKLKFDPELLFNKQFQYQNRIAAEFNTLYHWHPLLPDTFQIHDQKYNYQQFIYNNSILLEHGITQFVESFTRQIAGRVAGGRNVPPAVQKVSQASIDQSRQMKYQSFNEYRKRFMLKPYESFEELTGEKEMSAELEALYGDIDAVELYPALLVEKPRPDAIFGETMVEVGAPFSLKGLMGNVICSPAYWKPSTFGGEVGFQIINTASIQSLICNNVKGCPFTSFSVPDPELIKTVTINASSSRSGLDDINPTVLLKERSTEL

[2] = target: T2, Prostaglandin G/H synthase 2 (Homo sapiens, UniProt P35354); assay: In vitro inhibitory concentration against prostaglandin G/H synthase 2 in microsomal enzyme assay
T2 sequence (P35354 whole entry): T1 sequence (whole entry)

SMILES: CS(=O)(=O)c1ccc(C2=C(c3ccccc3)S(=O)OC2)cc1 (configuration not stated)
- inhibition [1]: 13%
- IC50 [2]: > 100 µM
